Measured values taken from PubChem BioAssay (NCI).
Several values for one entry are separate records, joined by “and”; a condition that tells them apart may be missing. Identical values can stand only once.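 Assay format: 96-well plates, 48-hour exposure. GI50 marks 50% less growth. TGI marks complete inhibition of growth.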

Experiments:
Assay in all cases: NCI tumour cell line growth inhibition, 48 h
[1] = tested on: RXF-631 renal
[2] = tested on: KM20L2 colon
[3] = tested on: XF 498 CNS
[4] = tested on: DMS 273 small cell lung
[5] = tested on: 786-0 renal
[6] = tested on: M19-MEL melanoma
[7] = tested on: DLD-1 colon
[8] = tested on: LXFL 529 NSCLC
[9] = tested on: CCRF-CEM leukemia
[10] = tested on: SN12C renal
[11] = tested on: DMS 114 small cell lung
[12] = tested on: NCI/ADR-RES ovarian
[13] = tested on: U251 CNS
[14] = tested on: HOP-18 NSCLC
[15] = tested on: SNB-78 CNS
[16] = tested on: T-47D breast

| SMILES | TGI [1] [µM] | TGI [2] [µM] | TGI [3] [µM] | TGI [4] [µM] | TGI [5] [µM] | TGI [6] [µM] | TGI [7] [µM] | TGI [8] [µM] | TGI [9] [µM] | TGI [10] [µM] | TGI [11] [µM] | TGI [12] [µM] | TGI [13] [µM] | TGI [14] [µM] | TGI [15] [µM] | GI50 [16] [µM] | TGI [16] |
| --- | --- | --- | --- | --- | --- | --- | --- | --- | --- | --- | --- | --- | --- | --- | --- | --- | --- |
| CC12O[C@H](c3ccccc3)[C@H](c3ccccc3)N1C(=O)C1(C(=O)OCc3ccccc3)CC12 (some centres undefined) | > 100 | > 100 | > 100 | > 100 | > 100 | > 100 | > 100 | > 100 | > 100 | > 100 | > 100 |  |  |  |  |  |  |
| C[n+]1c2ccccc2c(CNC(CCC(N)=O)C(=O)O)c2ccccc21 (centres undefined) |  | 12.3 | 3.81 | 4.44 | 3.22 | 7.91 | 1.83 | 2.26 | 3.29 | 7.36 | 2.04 | 14 | 12.8 | 11.8 | 25.7 |  |  |
| Cc1ccc(NC(=O)CC(=O)n2nc(-c3ccccc3)c(N=Nc3ccc(Cl)cc3)c2-c2ccccc2)cc1 | > 100 | > 100 |  | > 100 | 45.2 | 60.4 | 54.4 | > 100 | 54.3 | > 100 | > 100 |  |  | > 100 | > 100 |  |  |
| Cc1cc(N(CCC#N)CCC#N)ccc1/C=C(\NC(=O)/C=C/c1ccccc1)NC(=O)Nc1ccc(Cl)cc1 |  |  | > 100 | > 100 | > 100 | > 100 | > 100 | > 100 | > 100 | > 100 | > 100 |  | 39.4 |  |  |  |  |
| C[C@@]12CC[C@H]3[C@@H]4CCC(=O)N[C@@]4(C)CC[C@@H]3[C@@]1(C)CC[C@H](OC(=O)Cc1ccc(N(CCCl)CCCl)cc1)C2 |  | 32.7 |  | 30.3 |  | 32.8 | 47.1 |  | 35.1 | 29.1 | 28.8 | 37 | 28.8 | 34 | 39.2 |  |  |
| O=[N+]([O-])c1ccc(NC2OCC(O)C(O)C2O)cc1 (centres undefined) | > 100 | > 100 | > 100 | > 100 | > 100 |  | > 100 | > 100 | > 100 | > 100 | > 100 |  | > 100 |  | > 100 |  |  |
| Cc1cc2c(c3oc(C(O)(CO)C4CO4)cc(=O)c13)C(=O)c1c(O)cccc1C2=O (centres undefined) | > 100 |  |  |  |  |  |  |  | 0.000111 |  |  |  | 0.00411 | 0.0358 | > 100 | 0.00375 | 0.00683 µM and 0.00232 µM and 0.0146 µM |
| O=c1ccc2ccccc2o1 |  | > 100 | > 100 |  | > 100 | > 100 | > 100 | > 100 | > 100 | > 100 | > 100 |  | > 100 | > 100 | > 100 |  |  |
| CCOC(OCC)C(CC)[Se]c1ccccc1[N+](=O)[O-] (centres undefined) |  | 6.36 | > 49 | 11.3 | > 46.7 | > 100 | > 90.2 | > 100 | > 62.5 | > 61.2 |  |  | 15.4 | > 100 | > 100 |  | > 100 µM |
| COC(=O)C1OC(O[C@H]2CC[C@]3(C)[C@H]4CC=C5[C@@H]6CC(C)(C)CC[C@]6(C(=O)OC)[C@H](O)C[C@@]5(C)[C@]4(C)CC[C@H]3C2(C)C)C(O)C(O)C1O (some centres undefined) |  |  |  |  | 20.9 |  |  |  | 21.4 | 25.9 |  | 26.3 | 23.9 |  |  |  | 28.6 µM |
| NC(=O)N/N=C(\Cc1nc2ccc(C(=O)c3ccccc3)cc2[nH]c1=O)C(=O)Nc1ccc(Br)cc1 |  | > 100 | > 100 | > 100 | > 100 | > 100 | > 100 | > 100 | > 100 | > 100 | > 100 |  | > 100 | > 100 | > 100 |  |  |
| Nc1nc2c(ncn2CCOC(c2ccccc2)P(=O)(O)O)c(=O)[nH]1 (centres undefined) |  | > 100 |  | > 100 | > 100 |  | > 100 | > 100 |  | > 100 |  |  | > 100 |  | > 100 |  |  |
| COc1nn(Cc2ccccc2F)c2ccc([N+](=O)[O-])cc12 |  |  |  |  | > 100 |  |  |  | > 100 | > 100 |  | > 100 | > 100 |  |  |  | > 100 µM |
| N[C@@H]1c2c(Br)sc(Br)c2[C@H](O)[C@@H]1O |  |  |  |  | > 100 |  |  |  | > 100 | > 100 |  | > 100 | > 100 |  |  |  | > 100 µM |
| CCc1cccc(C(C)C)c1NC(=O)C(=O)C(C(=O)C(=O)OC)c1nc2ccccc2[nH]c1=O (centres undefined) | > 100 | > 100 | > 100 | > 100 | > 100 | > 100 |  | > 100 | > 100 | > 100 | > 100 |  | > 100 | > 100 | > 100 |  |  |
